{
  "source": "patent US20240269139A1",
  "about": "“COMPOUNDS FOR TARGETED PROTEIN DEGRADATION OF KINASES” (DANA-FARBER CANCER INSTITUTE, INC., priority 2020, published 2024)",
  "key": {"[1]": {"target": "protein kinases (human kinome) (Homo sapiens, UniProt O75676)", "sequence (O75676 whole entry)": "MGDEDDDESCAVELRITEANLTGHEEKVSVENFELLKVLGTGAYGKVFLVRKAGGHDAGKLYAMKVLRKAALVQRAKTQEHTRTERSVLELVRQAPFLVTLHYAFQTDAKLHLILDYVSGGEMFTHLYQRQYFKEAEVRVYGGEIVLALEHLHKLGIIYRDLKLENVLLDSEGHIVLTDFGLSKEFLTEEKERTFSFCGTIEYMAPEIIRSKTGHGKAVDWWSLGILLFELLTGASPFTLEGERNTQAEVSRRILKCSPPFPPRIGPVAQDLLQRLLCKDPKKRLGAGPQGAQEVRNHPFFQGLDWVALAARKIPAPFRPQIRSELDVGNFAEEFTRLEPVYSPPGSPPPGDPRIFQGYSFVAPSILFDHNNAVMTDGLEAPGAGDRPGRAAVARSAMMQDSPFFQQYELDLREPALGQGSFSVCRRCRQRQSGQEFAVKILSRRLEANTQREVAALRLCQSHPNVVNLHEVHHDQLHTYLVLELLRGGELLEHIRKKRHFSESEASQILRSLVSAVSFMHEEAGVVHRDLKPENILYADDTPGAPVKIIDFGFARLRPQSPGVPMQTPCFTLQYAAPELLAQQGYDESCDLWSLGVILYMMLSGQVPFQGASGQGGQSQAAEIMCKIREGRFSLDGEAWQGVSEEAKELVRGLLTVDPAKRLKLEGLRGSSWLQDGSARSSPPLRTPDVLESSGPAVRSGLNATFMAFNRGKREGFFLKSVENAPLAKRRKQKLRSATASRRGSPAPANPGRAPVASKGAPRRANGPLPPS", "type": "cell-based", "conditions": "for logFC: RPS6KA4 (O75676)"}, "[2]": {"target": "protein kinases (human kinome) (Homo sapiens, UniProt Q9H3S4)", "sequence (Q9H3S4 whole entry)": "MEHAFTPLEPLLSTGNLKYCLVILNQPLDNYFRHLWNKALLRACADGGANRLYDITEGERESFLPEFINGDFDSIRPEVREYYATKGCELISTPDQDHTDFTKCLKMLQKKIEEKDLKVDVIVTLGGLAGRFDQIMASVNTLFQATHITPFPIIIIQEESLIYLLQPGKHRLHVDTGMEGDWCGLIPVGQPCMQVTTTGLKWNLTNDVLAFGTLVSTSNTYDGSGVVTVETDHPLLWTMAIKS", "type": "cell-based", "conditions": "TPK1 (Q9H3S4); experiment wp114"}},
  "note": "Like-named read-outs stand apart in the source and are kept apart here.",
  "data": [
    {"smiles": "Cc1ncsc1-c1ccc([C@H](C)NC(=O)[C@@H]2C[C@@H](O)CN2C(=O)[C@@H](NC(=O)CCOCCOCCN2CCN(c3ccc(Nc4ncc(Cl)c(Nc5ccccc5S(=O)(=O)C(C)C)n4)cc3)CC2)C(C)(C)C)cc1", "note": "[FMF.06.098.1]", "values": [
      {"measurement": "logFC of RPSGKA4 (O75676)", "setting": "[1]; Experiment wp108", "result": "−0.4196"},
      {"measurement": "logFC", "setting": "[1]; experiment wp108", "result": "−0.4196"},
      {"measurement": "logFC", "setting": "[1]; experiment wp131", "result": "−0.5351"},
      {"measurement": "logFC of RPS6KA4 (O75676)", "setting": "[1]; experiment wp131", "result": "−0.5351"},
      {"measurement": "logFC", "setting": "[2]", "result": "−0.8744"}
    ]}
  ]
}
